# Measured values as given in patent US9643940B2, “Amine salt and crystals thereof” (ONO PHARMACEUTICAL CO., LTD., priority 2012, dated 2017).
# Experiments:
# [1] = Examination of salts of Compound 17 for crystallization; assay type: physicochemical; settings: for State of the salt: salts of Compound 17 with the named bases; for State: salt of Compound 17 with the stated counter base, concentrated from methanol, triturated with various solvents
# Experimental: Then, the mixture was concentrated under reduced pressure and trituration was conducted with using various solvents. For the examination, ethyl acetate, methyl t-butyl ether, n-hexane and the like were used as the solvents.
# bladder detrusor = assay: Evaluation of the activity to contract the bladder detrusor (bladder strip specimens, Magnus system); assay type: tissue-based; settings: rat bladder strip; for Change of tension (%): contraction evoked by potassium chloride solution (7.5 mmol/L) set at 100%
# Experimental: Rats were anesthetized with pentobarbital, followed by abdominal incision to remove the bladders and the urethras. The bladder bodies were cut in the longitudinal direction to prepare strip specimens with a size of about 10×3 mm. Additionally, each of the urethras was also cut in the longitudinal direction to prepare specimens with a size of about 10×3 mm. The prepared specimens were suspended in Krebs buffer (37° C., 5 mL), which was aerated with a mixed gas of 95% O2 and 5% CO2. The tension values of the specimens were measured using a Magnus system equipped with an isometric transducer and an amplifier, and the measured values were recorded on a computer via a data collection system. The specimens were suspended with a load of about 0.5 g. More than 1 hr later, potassium chloride (100 mmol/L) was added and the maximal contraction response was observed. After washing with Krebs buffer, the specimens were suspended with a load of about 0.5 g for stabilization. A potassium chloride solution (7.5 mmol/L) was added to induce the contraction of the specimens. After the contraction-inducing response was stabilized, the test compound was added in a cumulative manner and the response was observed before and after the treatment with the drug. The change of tension (%) of a test compound of each concentration was calculated with setting the contraction evoked by the addition of potassium chloride solution (mg) at 100%.
# [2] = Chemical stability test (residual percentage by HPLC after storage); assay type: physicochemical; settings: for residual percentages: during storage under each condition; for Residual percentage (%): relative to sample stored at −20° C., HPLC
# Experimental: With respect to Compound 17 and Crystalline forms A, B and C of Compound 18, chemical stability test was conducted according to the method and the condition below.
# In a laboratory tube, approximately 1.5 to 3 mg of a test compound was weighed and stored under the condition below.
# After storing, the residual percentage (%) of the sample stored under each condition relative to the area percentage of the main component in the sample stored at −20° C. was calculated with using HPLC. In addition, the appearance was observed by eye and compared with the sample stored at −20° C.
# 80° C.: One week, two weeks and one month
# 60° C.: Two weeks and one month
# 40° C.: Two weeks, one month, two months, four months and six months
# 25° C.-60% RH: Two months, four months and six months
# 5° C.: Two months, four months and six months
# 40° C.-75% RH (opened): Two weeks, one month, two months, four months and six months
# 25° C.-40% RH (opened): Two weeks, one month and two months
# 25° C.-60% RH (opened): Two weeks, one month and two months
# 25° C.-75% RH (opened): Two weeks, one month and two months
# The samples to be compared with the samples above were stored at −20° C.
# A sample to be evaluated was dissolved in a mixed solution of acetonitrile/20 mmol/L KH2PO4 aq. (pH3.0 with H3PO4) (1/1) and a solution of 1.0 mg/mL (concentration as a salt) was prepared.
# Detector: Ultraviolet absorptiometer (measurement wavelength: 215 nm)
# Column: CHIRALCEL OD-3R (150×4.6 mm, S-5 μm)
# Column temperature: 25° C.
# Mobile phase: Solution A: 20 mmol/L KH2PO4 aq. (pH3.0 with H3PO4), Solution B: CH3CN
# Area measurement range: 35 minutes
Molecule,State of the salt [1],State [1],further results
OC1CCNCC1 [4-hydroxypiperidine],amorphous oily substances,,
CCc1ncc[nH]1,,Oily,
CC1CCNCC1 [drawing 23],,Oily,
Arginine,amorphous oily substances,Oily,
COC1CCNCC1,,Oily,
OC1CCNCC1 [drawing 24],,Oily,
CCCCNCCC,,Oily,
OCCC1CCNCC1 [drawing 22],,Oily,
C1CCCNCC1,,Oily,
C1=CCNCC1,,Oily,
"Piperidin-4-ylmethanol 2-[(2-{(1R,5R)-2-oxo-5-[(1E,4S)-7,8,8-trifluoro-4-hydroxy-4-methyl-1,7-octadien-1-yl]cyclopentyl}ethyl)thio]-1,3-thiazole-4-carboxylate [Compound 18]",,Crystalline solid,Change of tension (%) (bladder detrusor; 1 nmol/L): 5.97%; Change of tension (%) (bladder detrusor; 10 nmol/L): 54.35%; Change of tension (%) (bladder detrusor; 100 nmol/L): 177.91%; Change of tension (%) (bladder detrusor; 1 μmol/L): 245.91%; Effect on the bladder detrusor (in words) (bladder detrusor): contracted the bladder detrusor; residual percentages [2]: ≥ 90%
CC(C)(C)N [t-Butylamine],,Oily,
"C[C@@](O)(C/C=C/[C@H]1CCC(=O)[C@@H]1CCSc1nc(C(=O)O)cs1)CCC(F)=C(F)F [Crystalline Form A, piperidin-4-ylmethanol 2-[(2-{(1R,5R)-2-oxo-5-[(1E,4S)-7,8,8-trifluoro-4-hydroxy-4-methyl-1,7-octadien-1-yl]cyclopentyl}ethyl)thio]-1,3-thiazole-4-carboxylate]",,,Residual percentage (%) ([2]; 40° C.-75% RH-one month): 92.0%; Residual percentage (%) ([2]; 40° C.-one month): 99.6%; Residual percentage (%) ([2]; 60° C.-one month): 98.6%
[K+] [Potassium],amorphous oily substances,Oily,
CCN(CC)CC [Triethylamine],amorphous oily substances,Oily,
[Mg] [Magnesium],amorphous oily substances,Oily,
CNCCNC,,Oily,
C#CCN(C)C,,Oily,

Molecule,State of the salt [1],State [1],further results
Sodium,amorphous oily substances,Oily,
CCNCCCCO,,Oily,
"C[C@@](O)(C/C=C/[C@H]1CCC(=O)[C@@H]1CCSc1nc(C(=O)O)cs1)CCC(F)=C(F)F [Compound 17, 2-[(2-{(1R,5R)-2-oxo-5-[(1E,4S)-7,8,8-trifluoro-4-hydroxy-4-methyl-1,7-octadien-1-yl]cyclopentyl}ethyl)thio]-1,3-thiazole-4-carboxylic acid]",,,Residual percentage (%) ([2]; 40° C.-75% RH-one month): 58.6%; Residual percentage (%) ([2]; 40° C.-one month): 76.0%; Residual percentage (%) ([2]; 60° C.-one month): 60.4%; residual percentages [2]: decreased
[Ca] [Calcium],amorphous oily substances,Oily,
"C[C@@](O)(C/C=C/[C@H]1CCC(=O)[C@@H]1CCSc1nc(C(=O)O)cs1)CCC(F)=C(F)F [Crystalline Form C, piperidin-4-ylmethanol 2-[(2-{(1R,5R)-2-oxo-5-[(1E,4S)-7,8,8-trifluoro-4-hydroxy-4-methyl-1,7-octadien-1-yl]cyclopentyl}ethyl)thio]-1,3-thiazole-4-carboxylate]",,,Residual percentage (%) ([2]; 40° C.-75% RH-one month): 97.5%; Residual percentage (%) ([2]; 40° C.-one month): 99.4%; Residual percentage (%) ([2]; 60° C.-one month): 97.9%
c1ccc2c(c1)CNC2,,Oily,
OCCC1CCNCC1 [4-piperidineethanol],amorphous oily substances,,
"C[C@@](O)(C/C=C/[C@H]1CCC(=O)[C@@H]1CCSc1nc(C(=O)O)cs1)CCC(F)=C(F)F [Crystalline Form B, piperidin-4-ylmethanol 2-[(2-{(1R,5R)-2-oxo-5-[(1E,4S)-7,8,8-trifluoro-4-hydroxy-4-methyl-1,7-octadien-1-yl]cyclopentyl}ethyl)thio]-1,3-thiazole-4-carboxylate]",,,Residual percentage (%) ([2]; 40° C.-75% RH-one month): 92.6%; Residual percentage (%) ([2]; 40° C.-one month): 99.6%; Residual percentage (%) ([2]; 60° C.-one month): 98.3%
C=CCNCC=C,,Oily,
CNCCCO,,Oily,
c1ccc(CNCc2ccccc2)cc1,,Oily,
OC[C@@H]1CCCN1,,Oily,
OCCNCCO [Diethanolamine],amorphous oily substances,Oily,
CN1CCCCC1,,Oily,
C1CCC(NC2CCCCC2)CC1 [Dicyclohexylamine],amorphous oily substances,Oily,
Lysine,amorphous oily substances,Oily,
CNCCOC,,Oily,
CC1CCNCC1 [4-methylpiperidine],amorphous oily substances,,
